Source: patent US10077261B2, “Imidazolin-5-one derivative useful as FASN inhibitors for the treatment of cancer” (Janssen Pharmaceutica NV, priority 2012, dated 2018)

Tests used:
[1] = system: A2780 ovarian cells; test: A2780 ovarian cell proliferation assay in lipid reduced medium, without palmitate (MTT); format: cell-based; conditions: Homo sapiens, A2780, 96 h; read-out: pIC50 A2780 Ovarian Cell, Without Palmitate (converted)
[2] = system: A2780 ovarian cells; test: A2780 ovarian cell proliferation assay in lipid reduced medium, with palmitate (MTT); format: cell-based; conditions: Homo sapiens, A2780, 96 h; read-out: pIC50 A2780 Ovarian Cell, With Palmitate (converted)
Summary of the method: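 In this palmitate-supplemented format, compound dilutions (30 μM down to 0.01 μM) are added to cells in lipid-reduced serum with 25 μM palmitate, 0.2% fatty-acid-free BSA and 0.25% ethanol. After four days (96 h) MTT absorbance at 544 nm is recorded and fitted by minimum sum of squares.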

[3] = target: Fatty Acid Synthase Keto-reductase Domain (FASN KR) (Homo sapiens, UniProt P49327); test: Fatty Acid Synthase keto-reductase domain (FASN KR) inhibition, NADPH oxidation at 340 nm
Protocol: After 20 minutes incubation at room temperature the plate was measured again (T2).
The decrease in absorbance was calculated as (Absorbance before incubation T1)−(Absorbance following incubation T2).
A plot of Controlmin versus test compound concentration was fitted to a 4-parameter logistic curve using a non-linear least squares regression method.

[4] = target: T1, hFASN enzyme (full length) (Homo sapiens, UniProt P49327); test: Fatty Acid Synthase (FASN) inhibition scintillation proximity assay; format: biochemical; conditions: for inhibition at 10 µM: read-out: Human FASN % inhibition @ 10 μM, 10 μM test compound; for IC50: read-out: Human FASN pIC50 (converted)
T1 construct: 10 μL hFASN enzyme (full length, 300 ng, purified in house); made in house
Summary of the method: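 Scintillation proximity format: in-house full-length enzyme, 300 ng per well, pH 7.5 phosphate/DTT buffer, ³H-acetyl-CoA and malonyl-CoA. Emission counted on LEADseeker at 610 nm at least 24 h after stopping.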

T1 sequence (P49327 whole entry): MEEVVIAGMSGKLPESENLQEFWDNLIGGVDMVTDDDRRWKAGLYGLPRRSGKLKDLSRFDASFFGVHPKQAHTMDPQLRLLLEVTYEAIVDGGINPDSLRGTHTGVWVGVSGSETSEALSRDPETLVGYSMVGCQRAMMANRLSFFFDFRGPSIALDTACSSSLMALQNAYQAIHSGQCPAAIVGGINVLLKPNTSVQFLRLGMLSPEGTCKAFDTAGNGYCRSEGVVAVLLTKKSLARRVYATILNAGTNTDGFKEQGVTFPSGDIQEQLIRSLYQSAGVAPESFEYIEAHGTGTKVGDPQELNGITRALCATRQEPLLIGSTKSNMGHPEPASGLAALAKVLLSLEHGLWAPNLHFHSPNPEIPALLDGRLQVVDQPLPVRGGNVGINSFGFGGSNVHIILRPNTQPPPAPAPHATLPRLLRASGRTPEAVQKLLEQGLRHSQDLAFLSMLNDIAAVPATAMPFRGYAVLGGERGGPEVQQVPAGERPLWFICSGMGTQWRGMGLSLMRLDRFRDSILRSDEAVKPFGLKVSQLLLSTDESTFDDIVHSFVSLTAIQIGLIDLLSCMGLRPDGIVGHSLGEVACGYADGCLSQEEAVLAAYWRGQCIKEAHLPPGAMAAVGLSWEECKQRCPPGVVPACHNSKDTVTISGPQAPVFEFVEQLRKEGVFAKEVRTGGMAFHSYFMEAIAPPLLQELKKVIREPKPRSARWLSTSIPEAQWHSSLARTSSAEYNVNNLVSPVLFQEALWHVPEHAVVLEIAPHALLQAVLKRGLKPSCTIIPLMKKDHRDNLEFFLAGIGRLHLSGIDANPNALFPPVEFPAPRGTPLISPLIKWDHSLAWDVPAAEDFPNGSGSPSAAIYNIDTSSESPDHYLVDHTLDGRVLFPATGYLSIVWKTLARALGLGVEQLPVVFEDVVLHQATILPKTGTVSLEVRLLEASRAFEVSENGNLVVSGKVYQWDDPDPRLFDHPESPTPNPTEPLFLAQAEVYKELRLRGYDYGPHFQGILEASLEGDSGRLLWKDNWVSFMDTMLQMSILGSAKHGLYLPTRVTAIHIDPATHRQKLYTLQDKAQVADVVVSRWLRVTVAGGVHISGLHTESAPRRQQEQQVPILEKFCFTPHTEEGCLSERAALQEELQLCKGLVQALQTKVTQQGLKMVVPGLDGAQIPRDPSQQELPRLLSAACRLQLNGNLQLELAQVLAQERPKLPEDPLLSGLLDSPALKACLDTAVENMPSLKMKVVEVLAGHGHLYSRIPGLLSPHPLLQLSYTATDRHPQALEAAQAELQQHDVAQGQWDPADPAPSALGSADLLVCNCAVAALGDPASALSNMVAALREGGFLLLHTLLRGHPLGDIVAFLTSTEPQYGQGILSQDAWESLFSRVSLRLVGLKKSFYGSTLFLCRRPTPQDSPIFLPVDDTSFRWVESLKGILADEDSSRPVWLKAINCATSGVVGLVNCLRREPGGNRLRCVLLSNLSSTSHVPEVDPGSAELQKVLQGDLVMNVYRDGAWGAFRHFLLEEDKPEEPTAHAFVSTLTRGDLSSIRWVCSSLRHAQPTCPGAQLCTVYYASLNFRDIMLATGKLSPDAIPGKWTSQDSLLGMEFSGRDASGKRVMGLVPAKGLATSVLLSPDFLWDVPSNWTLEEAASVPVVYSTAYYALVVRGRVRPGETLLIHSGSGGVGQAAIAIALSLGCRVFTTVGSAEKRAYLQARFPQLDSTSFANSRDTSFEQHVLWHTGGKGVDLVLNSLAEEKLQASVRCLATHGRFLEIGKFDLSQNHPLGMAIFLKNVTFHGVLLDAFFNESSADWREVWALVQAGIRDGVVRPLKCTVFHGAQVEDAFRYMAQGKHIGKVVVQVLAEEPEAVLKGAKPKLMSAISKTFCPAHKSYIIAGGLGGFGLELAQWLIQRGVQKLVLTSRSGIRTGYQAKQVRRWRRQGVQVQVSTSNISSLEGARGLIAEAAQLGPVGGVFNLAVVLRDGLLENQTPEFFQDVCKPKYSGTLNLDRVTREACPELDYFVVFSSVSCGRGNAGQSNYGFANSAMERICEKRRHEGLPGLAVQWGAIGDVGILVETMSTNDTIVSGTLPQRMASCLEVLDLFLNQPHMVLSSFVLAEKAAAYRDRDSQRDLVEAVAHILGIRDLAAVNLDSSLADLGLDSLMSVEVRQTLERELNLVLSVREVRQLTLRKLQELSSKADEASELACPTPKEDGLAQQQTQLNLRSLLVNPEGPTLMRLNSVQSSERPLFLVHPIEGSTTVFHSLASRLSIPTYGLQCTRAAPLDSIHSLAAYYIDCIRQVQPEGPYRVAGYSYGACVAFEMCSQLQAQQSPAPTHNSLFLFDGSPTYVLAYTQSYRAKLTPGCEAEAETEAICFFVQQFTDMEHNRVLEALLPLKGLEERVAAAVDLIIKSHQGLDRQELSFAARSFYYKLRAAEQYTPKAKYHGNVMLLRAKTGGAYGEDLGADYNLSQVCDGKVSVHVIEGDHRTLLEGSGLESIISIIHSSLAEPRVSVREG
Sequence of Fatty Acid Synthase Keto-reductase Domain (FASN KR) (P49327 whole entry, the tested form may be a part): as the sequence (P49327 whole entry) above

SMILES	IC50 [1]	IC50 [2]	IC50 [3]	inhibition at 10 µM [4]	IC50 [4]
O=C(C1CC1)N1CC(CN2C(=O)C3(CC3)N=C2c2ccc(-c3ccc4[nH]ncc4c3)cc2)C1 [compound 51, 6-{[1-(Cyclopropylcarbonyl)azetidin-3-yl]methyl}-5-[4-(1H-indazol-5-yl)phenyl]-4,6-diazaspiro[2.4]hept-4-en-7-one]	123 nM	> 10000 nM	162 nM	102%	79.4 nM
C=CC(=O)N1CC[C@@H](CN2C(=O)C3(CCN(Cc4ccccc4)CC3)N=C2c2ccc(-c3ccc4occc4c3)cc2)C1 [compound 90, 3-{[(3R)-1-Acryloylpyrrolidin-3-yl]methyl}-2-[4-(1-benzofuran-5-yl)phenyl]-8-benzyl-1,3,8-triazaspiro[4.5]dec-1-en-4-one]	6310 nM	> 10000 nM	1350 nM	101%	309 nM
Cc1cc2cc(-c3ccc(C4=NC5(CC5)C(=O)N4CC4CN(C(=O)C5CC5)C4)c(C)c3)ccc2o1 [compound 289, 6-((1-(cyclopropanecarbonyl)azetidin-3-yl)methyl)-5-(2-methyl-4-(2-methylbenzofuran-5-yl)phenyl)-4,6-diazspiro[2.4]hept-4-en-7-one]	1120 nM	> 10000 nM	324 nM	102%	97.7 nM
O=C(C1CC1)N1CC(CN2C(=O)C3(CC3)N=C2c2ccc(-c3ccc4[nH]ccc4c3)cc2)C1 [compound 40, 6-{[1-(Cyclopropylcarbonyl)azetidin-3-yl]methyl}-5-[4-(1H-indol-5-yl)phenyl]-4,6-diazaspiro[2.4]hept-4-en-7-one]	72.4 nM	> 10000 nM	42.7 nM	106%	18.6 nM
N#Cc1ccc(-c2ccc(C3=NC4(CC4)C(=O)N3C[C@@H]3CCN(C(=O)C4CC4)C3)cc2)cc1 [compound 48, 4′-(6-{[(3R)-1-(Cyclopropylcarbonyl)pyrrolidin-3-yl]methyl}-7-oxo-4,6-diazaspiro[2.4]hept-4-en-5-yl)biphenyl-4-carbonitrile]	182 nM	> 10000 nM	282 nM	108%	97.7 nM
Cc1cc(-c2ccc3sccc3c2)ccc1C1=NC2(CC2)C(=O)N1C[C@@H]1CCN(C(=O)C2CC2)C1 [compound 279, (R)-5-(4-(benzo[d]thiophen-5-yl)-2-methylphenyl)-6-((1-(cyclopropanecarbonyl)pyrrolidin-3-yl)methyl)-4,6-diazaspiro[2.4]hept-4-en-7-one]	407 nM	> 10000 nM	44.7 nM	107%	28.2 nM
O=C(C1CC1)N1CC(CN2C(=O)C3(CCCC3)N=C2c2ccc(-c3ccc4cnccc4c3)cc2)C1 [compound 79, 3-{[1-(Cyclopropylcarbonyl)azetidin-3-yl]methyl}-2-(4-isoquinolin-6-ylphenyl)-1,3-diazaspiro[4.4]non-1-en-4-one]	145 nM	> 10000 nM	324 nM	108%	61.7 nM
O=C(C1CC1)N1CC(CN2C(=O)C3(CC3)N=C2c2ccc(-c3ccc(-c4cccnc4)cc3)cc2)C1 [compound 60, 6-{[1-(Cyclopropylcarbonyl)azetidin-3-yl]methyl}-5-(4′-pyridin-3-ylbiphenyl-4-yl)-4,6-diazaspiro[2.4]hept-4-en-7-one]	263 nM	> 10000 nM	288 nM	99.4%	93.3 nM

The next lines start with the values.

IC50 [1]	IC50 [2]	IC50 [3]	inhibition at 10 µM [4]	IC50 [4]	SMILES
~89.1 nM	> 10000 nM	295 nM	107%	135 nM	Cc1nnc(-c2ccc(-c3ccc(C4=NC5(CCCC5)C(=O)N4C[C@@H]4CCN(C(=O)C5CC5)C4)c(C)c3)cc2)o1 [compound 882, (R)-3-((1-(cyclopropanecarbonyl)pyrrolidin-3-yl)methyl)-2-(3-methyl-4′-(5-methyl-1,3,4-oxadiazol-2-yl)-[1,1′-biphenyl]-4-yl)-1,3-diazaspiro[4.4]non-1-en-4-one]
58.9 nM	5130 nM	45.7 nM	103%	33.9 nM	O=C(C1CC1)N1CC[C@@H](CN2C(=O)C3(CCCC3)N=C2c2ccc(-c3ccc4[nH]ccc4c3)cc2)C1 [compound 4, 3-{[(3R)-1-(Cyclopropylcarbonyl)pyrrolidin-3-yl]methyl}-2-[4-(1H-indol-5-yl)phenyl]-1,3-diazaspiro[4.4]non-1-en-4-one]
3470 nM	> 10000 nM	1410 nM	96.2%	550 nM	O=C(C1CC1)N1CC[C@@H](CN2C(=O)C3(CCCC3)N=C2c2ccc(-c3nc4ccccc4o3)cc2)C1 [compound 36, 2-[4-(1,3-Benzoxazol-2-yl)phenyl]-3-{[(3R)-1-(cyclopropylcarbonyl)pyrrolidin-3-yl]methyl}-1,3-diazaspiro[4.4]non-1-en-4-one]
955 nM	> 10000 nM	501 nM	104%	100 nM	O=C(C1CC1)N1CC[C@@H](CN2C(=O)C3(CC3)N=C2c2ccc(-c3ccc(F)cc3)cc2)C1 [compound 105, 6-{[(3R)-1-(Cyclopropylcarbonyl)pyrrolidin-3-yl]methyl}-5-(4′-fluorobiphenyl-4-yl)-4,6-diazaspiro[2.4]hept-4-en-7-one]
~2090 nM	> 10000 nM	263 nM	116%	75.9 nM	Cc1cc(-c2ccc(Cl)cc2)ccc1C1=NC2(CCCC2)C(=O)N1C[C@@H]1CCN(C(=O)C2CC2)C1 [compound 93, 2-(4′-Chloro-3-methylbiphenyl-4-yl)-3-{[(3R)-1-(cyclopropylcarbonyl)pyrrolidin-3-yl]methyl}-1,3-diazaspiro[4.4]non-1-en-4-one]
1120 nM	> 10000 nM	759 nM	93%	575 nM	N#Cc1ccc(-c2ccc(C3=NC4(CCCC4)C(=O)N3C[C@@H]3CCN(C(=O)C4CC4)C3)cc2)cc1 [compound 1, 4′-(3-{[(3R)-1-(Cyclopropylcarbonyl)pyrrolidin-3-yl]methyl}-4-oxo-1,3-diazaspiro[4.4]non-1-en-2-yl)biphenyl-4-carbonitrile]
~2400 nM	> 10000 nM	1350 nM	92.5%	537 nM	O=C(C1CC1)N1CC[C@@H](CN2C(=O)C3(CCCC3)N=C2c2ccc(-c3cccc(-c4cc[nH]n4)c3)cc2)C1 [compound 70, 3-{[(3R)-1-(Cyclopropylcarbonyl)pyrrrolidin-3-yl]methyl}-2-[3′-(1H-pyrazol-3-yl)biphenyl-4-yl]-1,3-diazaspiro[4.4]non-1-en-4-one]
~832 nM	> 10000 nM	234 nM	107%	75.9 nM	O=C(C1CC1)N1CC[C@@H](CN2C(=O)C3(CC3)N=C2c2ccc(-c3ccc(Cl)cc3)cc2)C1 [compound 114, 5-(4′-Chlorobiphenyl-4-yl)-6-{[(3R)-1-(cyclopropylcarbonyl)pyrrolidin-3-yl]methyl}-4,6-diazaspiro[2.4]hept-4-en-7-one]
